In paper PMC10657973 (Journal of Pharmaceutical Analysis, 2023):
Entries after “also recorded” stand apart in the source; their conditions may differ.

Tests used:
rMRP4 [1] = assay type: in vivo, rats
OAT2 = test: Specificity: uptake in OAT2-overexpressing cells; assay type: cell-based; details: uptake in overexpressing cells vs control
OCT2 = test: Specificity: uptake in OCT2-overexpressing cells; assay type: cell-based; details: uptake in overexpressing cells vs control
MATE2-K = test: Specificity: uptake in MATE2-K-overexpressing cells; assay type: cell-based; details: uptake in overexpressing cells vs control, pH 8.0
rOAT1/3 = test: rOAT1/3−/− rat experiment; assay type: in vivo, rats
MRP4 [2] = test: Intracellular accumulation of UTs in MRP4-overexpressing cells; assay type: cell-based, human; details: 100 μM, 30 min
OATP4C1 = test: Specificity: uptake in OATP4C1-overexpressing cells; assay type: cell-based; details: uptake in overexpressing cells vs control
P-gp = test: Specificity: uptake in P-gp-overexpressing cells; assay type: cell-based; details: uptake in overexpressing cells vs control, 4 mM ATP
PEPT2 = test: Specificity: uptake in PEPT2-overexpressing cells; assay type: cell-based; details: uptake in overexpressing cells vs control
OAT1 [3] = target: T1, OAT1 (Homo sapiens, UniProt Q4U2R8); test: Uptake of UTs in HEK293T-OAT1 cells; assay type: cell-based; details: 100 μM, 30 min; for uptake of HSA-bound UT in OAT1-overexpressing cells vs control cells / uptake of free UT in OAT1-overexpressing cells vs control cells: 37 °C; for uptake of HSA-bound UT in OAT1-overexpressing cells vs control cells: with HSA; for uptake of free UT in OAT1-overexpressing cells vs control cells: without HSA
T1 sequence (Q4U2R8 1-563): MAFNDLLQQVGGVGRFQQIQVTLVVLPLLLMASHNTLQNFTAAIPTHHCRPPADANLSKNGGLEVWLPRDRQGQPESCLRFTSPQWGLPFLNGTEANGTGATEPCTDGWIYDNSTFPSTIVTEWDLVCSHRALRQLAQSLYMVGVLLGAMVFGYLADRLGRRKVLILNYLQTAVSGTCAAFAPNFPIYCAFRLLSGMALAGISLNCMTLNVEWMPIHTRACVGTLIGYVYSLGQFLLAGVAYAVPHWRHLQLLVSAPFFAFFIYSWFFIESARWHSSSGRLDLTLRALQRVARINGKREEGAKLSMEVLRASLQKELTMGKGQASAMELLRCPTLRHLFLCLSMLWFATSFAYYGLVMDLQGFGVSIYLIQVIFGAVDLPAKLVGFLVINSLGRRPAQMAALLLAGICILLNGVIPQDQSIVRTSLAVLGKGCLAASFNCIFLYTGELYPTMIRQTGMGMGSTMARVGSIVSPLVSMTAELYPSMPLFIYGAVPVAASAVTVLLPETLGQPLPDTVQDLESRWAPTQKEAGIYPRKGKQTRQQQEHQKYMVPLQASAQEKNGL

OAT1 [4] = target: T1, OAT1; test: Transport kinetics of UTs in HEK293T-OAT1 cells; assay type: cell-based
MATE1 = test: Specificity: uptake in MATE1-overexpressing cells; assay type: cell-based; details: uptake in overexpressing cells vs control, pH 8.0
OAT3 [5] = target: T2, OAT3 (Homo sapiens, UniProt Q8TCC7); test: Uptake of UTs in HEK293T-OAT3 cells; assay type: cell-based; details: 100 μM, 30 min; for uptake of HSA-bound UT in OAT3-overexpressing cells vs control cells / uptake of free UT in OAT3-overexpressing cells vs control cells: 37 °C; for uptake of HSA-bound UT in OAT3-overexpressing cells vs control cells: with HSA; for uptake of free UT in OAT3-overexpressing cells vs control cells: without HSA
T2 sequence (Q8TCC7 1-542): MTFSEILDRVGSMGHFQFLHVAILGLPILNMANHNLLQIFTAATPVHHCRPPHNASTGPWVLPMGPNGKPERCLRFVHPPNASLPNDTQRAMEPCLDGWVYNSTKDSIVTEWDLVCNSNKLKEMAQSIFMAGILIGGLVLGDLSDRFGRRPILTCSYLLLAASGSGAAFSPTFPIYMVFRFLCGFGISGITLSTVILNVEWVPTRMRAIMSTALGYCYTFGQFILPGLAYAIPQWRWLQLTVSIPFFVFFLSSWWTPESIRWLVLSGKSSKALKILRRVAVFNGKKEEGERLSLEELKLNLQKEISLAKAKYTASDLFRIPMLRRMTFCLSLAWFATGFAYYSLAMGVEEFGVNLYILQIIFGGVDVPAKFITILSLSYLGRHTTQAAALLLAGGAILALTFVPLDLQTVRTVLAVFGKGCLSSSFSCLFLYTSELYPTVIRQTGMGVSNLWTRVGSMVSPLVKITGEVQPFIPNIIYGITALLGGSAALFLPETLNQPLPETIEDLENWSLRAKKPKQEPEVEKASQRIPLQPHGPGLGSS

URAT1 = test: Specificity: uptake in URAT1-overexpressing cells; assay type: cell-based; details: uptake in overexpressing cells vs control
OAT4 = test: Specificity: uptake in OAT4-overexpressing cells; assay type: cell-based
OAT3 [6] = target: T2, OAT3; test: Transport kinetics of UTs in HEK293T-OAT3 cells; assay type: cell-based; details: read-out: Km of OAT3-mediated uptake; HEK293T-OAT3, Michaelis-Menten
rOATs = rOATs inhibition experiment
[7] = tested on: OAT1/3 and MRP4 double-transfected MDCK cells; details: 37 °C
MRP2 [8] = test: Accumulation of kynurenic acid in MRP2-overexpressing cells; assay type: cell-based; details: Fig. S15
rMRP4 [9] = assay type: in vivo, rats; remark: listed apart in the source
[10] = Correlation between biomarkers and cefmetazole pharmacokinetics in rats; assay type: in vivo
[11] = assay type: in vivo, rats
MRP2 [12] = details: read-out: affinity (Km) for MRP2; cited from earlier work
MRP4 [13] = details: read-out: affinity (Km) for MRP4; cited from earlier work

O=C(O)CNC(=O)C=Cc1ccccc1 [N-(cinnamoyl)glycine]
cumulative urinary excretion in rats treated with MK-571 vs control (rMRP4 [1]; MK-571 (CMPF effect at 20 mg/kg)): not affected
transport mediated by OAT2 (OAT2): not mediated
transport mediated by OCT2 (OCT2): not mediated
transport mediated by MATE2-K (MATE2-K): not mediated
cumulative excretion, WT rats (rOAT1/3; first value of the printed pair, taken as WT, 12-h urine): 16.16 ± 5.27
cumulative excretion, rOAT1/3−/− rats (rOAT1/3; second value of the pair, taken as knockout, 12-h urine): 8.56 ± 3.43
uptake at 4 °C in MRP4-overexpressing cells vs control (MRP4 [2]): not significantly different
intracellular accumulation in MRP4-overexpressing cells vs control cells (MRP4 [2]; 37 °C, 4 mM ATP): significantly decreased; also recorded: markedly reduced
transport mediated by OATP4C1 (OATP4C1): not mediated
transport mediated by P-gp (P-gp): not mediated
transport mediated by PEPT2 (PEPT2): not mediated
uptake at 4 °C in OAT1-overexpressing cells vs control (OAT1 [3]): not significantly different
uptake of HSA-bound UT in OAT1-overexpressing cells vs control cells (OAT1 [3]): dramatically increased
uptake of free UT in OAT1-overexpressing cells vs control cells (OAT1 [3]): dramatically increased; also recorded: significantly elevated
Km (OAT1 [4]; read-out: Km of OAT1-mediated uptake, HEK293T-OAT1, Michaelis-Menten): 4260 µM
transport mediated by MATE1 (MATE1): not mediated
uptake at 4 °C in OAT3-overexpressing cells vs control (OAT3 [5]): not significantly different
uptake of HSA-bound UT in OAT3-overexpressing cells vs control cells (OAT3 [5]): dramatically increased
uptake of free UT in OAT3-overexpressing cells vs control cells (OAT3 [5]): dramatically increased; also recorded: significantly elevated
transport mediated by URAT1 (URAT1): not mediated
transport mediated by OAT4 / uptake in OAT4-overexpressing cells vs control (OAT4): not mediated
Km (OAT3 [6]): 2980 µM
cumulative urinary excretion in rats treated with PROB vs control (rOATs; 12 h urine): no significant effects
serum level in vivo (detectability by LC-MS/MS) (rOATs; rats / in vivo): below the detection limit

O=C(O)c1cc(=O)c2ccccc2[nH]1 [Kynurenic acid, kynurenic acid]
levels in renal tissues in rats treated with MK-571 vs control (rMRP4 [1]; MK-571 5, 10, 20 mg/kg oral, 7 days): significantly increased
uptake at 37 °C in OAT3-MRP4 cells vs double control cells [7]: significantly increased
renal clearance rate in rOAT1/3−/− rats vs WT (rOAT1/3; rat, in vivo): significantly decreased
serum levels in rOAT1/3−/− rats vs WT (rOAT1/3; rat, in vivo): significantly increased
substrate of MRP2 (MRP2 [8]): potential substrate of MRP2
uptake at 4 °C in MRP4-overexpressing cells vs control (MRP4 [2]): no significant difference
efflux from hepatocytes into the blood after rMRP4−/− (rMRP4 [9]; Fig. S9): hindered
renal clearance rate in rMRP4−/− rats vs WT (rMRP4 [9]; rat, in vivo): did not change significantly
renal tissue concentration in rMRP4−/− rats vs WT (rMRP4 [9]; rat, in vivo): unaffected
serum levels in rMRP4−/− rats vs WT (rMRP4 [9]; rat, in vivo): did not change significantly
plasma concentrations in rats treated with PROB ([10]; PROB 60 and 120 mg/kg 7 days, cefmetazole 100 mg/kg i.v.): increased
correlation of cmax with cefmetazole ([10]; WT and rOAT1/3−/− rats): moderate
plasma level in rOAT1/3−/− rats vs WT rats ([10]; rat, in vivo): markedly increased
transport mediated by P-gp (P-gp): not mediated
uptake at 4 °C in OAT1-overexpressing cells vs control (OAT1 [3]): no significant difference
uptake of HSA-bound UT in OAT1-overexpressing cells vs control cells (OAT1 [3]): dramatically increased
uptake of free UT in OAT1-overexpressing cells vs control cells (OAT1 [3]): dramatically increased; also recorded: significantly higher
linear uptake time (OAT1 [4]; HEK293T-OAT1/3 cells, 100 μM): 0 to 10 min
uptake at 4 °C in OAT3-overexpressing cells vs control (OAT3 [5]): no significant difference
uptake of HSA-bound UT in OAT3-overexpressing cells vs control cells (OAT3 [5]): dramatically increased
uptake of free UT in OAT3-overexpressing cells vs control cells (OAT3 [5]): dramatically increased; also recorded: significantly higher
transport mediated by OAT4 / uptake in OAT4-overexpressing cells vs control (OAT4): not mediated
half-life ([11]; rat, urine, iv, 2 mg/kg): 3.7 ± 0.7 h
rate of metabolism to (d4-)xanthurenic acid in vivo ([11]; rats, d5-kynurenic acid 2 mg/kg i.v.): < 12%
serum levels in rats treated with PROB vs control (rOATs; PROB 30, 60, 120 mg/kg oral, 7 days): increased

Nc1ccc(C(=O)NCC(=O)O)cc1 [aminohippuric acid]
Km (MRP2 [12]): 2000 µM
Km (MRP4 [13]): 160 µM
